Experimental data as given in ChEMBL document CHEMBL1201862, “PubChem BioAssay data set” (2004).
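Grown in 96-well plates, cells were treated for 48 hours with each compound at five concentrations. Insufficient inhibition: endpoint recorded as highest concentration tested. GI50 is the concentration that inhibits growth by half.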 Calls of active or inactive are those of the source. Rule as the data show it: active = GI50 up to about 1.1 µM and inactive = higher.

How the values were obtained:
Test in all cases: NCI-60 cell line screen, 48 h
COLO 205 = tested on: COLO 205
EKVX = tested on: EKVX
HCC 2998 = tested on: HCC 2998
HOP-62 = tested on: HOP-62
HT-29 = tested on: HT-29
KM12 = tested on: KM12
M14 = tested on: M14
MDA-N = tested on: MDA-N
NCI-H23 = tested on: NCI-H23
OVCAR-5 = tested on: OVCAR-5
OVCAR-8 = tested on: OVCAR-8
SK-MEL-2 = tested on: SK-MEL-2
SN12C = tested on: SN12C
T47D = tested on: T47D
TK-10 = tested on: TK-10
UACC-257 = tested on: UACC-257
CAKI-1 = tested on: CAKI-1
OVCAR-4 = tested on: OVCAR-4
SNB-75 = tested on: SNB-75

Measured: GI50

COC1=CC(=O)c2c(CCNC(=O)OCc3ccccc3)n[nH]c2C1=O
inactive: COLO 205 18.8 µM | EKVX 17.8 µM | HCC 2998 19 µM | HOP-62 22.3 µM | HT-29 22.8 µM | KM12 10 µM | M14 12.6 µM | MDA-N 2.24 µM | NCI-H23 4.01 µM | OVCAR-5 18.1 µM | OVCAR-8 23.1 µM | SK-MEL-2 11 µM | SN12C 13.8 µM | T47D 2.3 µM | TK-10 34 µM | UACC-257 14.9 µM

CN1CCc2[nH]nc(-c3n[nH]c4c3CN(C)CC4)c2C1
inactive: CAKI-1 > 100 µM | COLO 205 > 100 µM | EKVX > 100 µM | HCC 2998 > 100 µM | HOP-62 > 100 µM | HT-29 > 100 µM | KM12 > 100 µM | M14 > 100 µM | MDA-N > 100 µM | NCI-H23 > 100 µM | OVCAR-4 > 100 µM | OVCAR-5 > 100 µM | OVCAR-8 > 100 µM | SK-MEL-2 > 100 µM | SN12C > 100 µM | T47D > 100 µM | TK-10 > 100 µM | UACC-257 > 100 µM

Cc1cc2c(cc1C)[n+]([O-])c(NCCCN(C)C)c(C#N)[n+]2[O-]
inactive: CAKI-1 72.1 µM | EKVX 68.5 µM | HCC 2998 88.3 µM | HOP-62 > 100 µM | HT-29 61.5 µM | KM12 > 100 µM | M14 > 100 µM | MDA-N > 100 µM | NCI-H23 80.9 µM | OVCAR-4 > 100 µM | OVCAR-5 > 100 µM | OVCAR-8 > 100 µM | SK-MEL-2 > 100 µM | SN12C 82.4 µM | SNB-75 85.7 µM | TK-10 > 100 µM | UACC-257 > 100 µM

NS(=O)(=O)c1nnc(NC(=O)Nc2ccc(Cl)c(Cl)c2)s1
inactive: CAKI-1 25.9 µM | COLO 205 13.9 µM | EKVX 28.8 µM | HCC 2998 18.7 µM | HOP-62 17.8 µM | HT-29 16.7 µM | KM12 26.9 µM | M14 16.8 µM | MDA-N 20.5 µM | NCI-H23 18 µM | OVCAR-4 30.6 µM | OVCAR-5 24.5 µM | OVCAR-8 20.4 µM | SK-MEL-2 25.4 µM | SN12C 19.3 µM | T47D 19.9 µM | TK-10 20.6 µM | UACC-257 16.5 µM

O=C(C/C(=N/O)c1cc(-c2ccccc2)no1)c1ccccc1
inactive: CAKI-1 36.6 µM | COLO 205 > 100 µM | EKVX 33.8 µM | HCC 2998 > 100 µM | HOP-62 23.8 µM | HT-29 > 100 µM | KM12 > 100 µM | M14 85.3 µM | MDA-N > 100 µM | NCI-H23 20.9 µM | OVCAR-4 26.5 µM | OVCAR-5 > 100 µM | OVCAR-8 21.7 µM | SK-MEL-2 26.1 µM | SN12C 38.7 µM | T47D 35.8 µM | TK-10 35.1 µM | UACC-257 79.8 µM

NC(=S)N/N=C(/C(=O)Nc1nc2ccc([N+](=O)[O-])cc2s1)C1C(=O)NC(=S)NC1=O
inactive: CAKI-1 45.8 µM | COLO 205 > 100 µM | HCC 2998 56 µM | HT-29 > 100 µM | KM12 > 100 µM | M14 > 100 µM | MDA-N > 100 µM | NCI-H23 > 100 µM | OVCAR-4 23.7 µM | OVCAR-5 55.3 µM | OVCAR-8 > 100 µM | SK-MEL-2 > 100 µM | SN12C > 100 µM | T47D 47.4 µM | UACC-257 > 100 µM

O=C(C=P(c1ccccc1)(c1ccccc1)c1ccccc1)c1ccc(-c2cccc([N+](=O)[O-])c2)s1
inactive: CAKI-1 35.2 µM | COLO 205 14 µM | EKVX 57.7 µM | HCC 2998 51.1 µM | HOP-62 > 100 µM | HT-29 29.6 µM | KM12 42 µM | M14 > 100 µM | MDA-N 29.7 µM | NCI-H23 77.6 µM | OVCAR-4 31.3 µM | OVCAR-5 > 100 µM | OVCAR-8 47.3 µM | SN12C 68.7 µM | SNB-75 24 µM | TK-10 83.8 µM

OCSc1nn(CO)c(=S)s1
inactive: CAKI-1 31.1 µM | COLO 205 28.1 µM | EKVX 33.7 µM | HCC 2998 22.1 µM | HOP-62 21.8 µM | HT-29 28.1 µM | KM12 18.7 µM | M14 20.1 µM | NCI-H23 20 µM | OVCAR-4 18.5 µM | OVCAR-5 48.1 µM | OVCAR-8 10.5 µM | SK-MEL-2 23 µM | SN12C 21.2 µM | SNB-75 24.4 µM | T47D 23.9 µM | TK-10 73.5 µM | UACC-257 23 µM
